According to patent publication US20080261911A1, “Uses of diphenyl/diphenylamine carboxylic acids” (priority 2006, published 2008):
Entries after “also recorded” stand apart in the source; their conditions may differ.

How the values were obtained:
Type in all cases: cell-based
[1] = tested on: Panc-1 cells; experiment: Cell proliferation assay, Panc-1 cells; conditions: for growth of Panc-1 pancreatic cancer cells: different concentrations, 6 days, cell counting
Experimental: FIGS. 6A-6E show comparative effects of non-steroidal anti-inflammatory drugs on Panc-1 cell proliferation and Sp protein expression. Effects of tolfenamic acid (FIG. 6A), ampiroxicam (FIG. 6B), naproxen (FIG. 6C), and diclofenac sodium (FIG. 6D) on Panc-1 cell proliferation. Panc-1 cells were treated with different concentrations of non-steroidal anti-inflammatory drugs for 6 days, and the number of cells were determined on days 2, 4, and 6 by cell counting techniques. […] Panc-1 cells were treated with DMSO, 150 μM ampiroxicam, 150 μM naproxen, and 50 μM tolfenamic acid for 48 hr, and levels of Sp proteins and the cleaved poly (ADP-ribose) polymerase (PARP) protein were determined in whole cell lysates by Western blot analysis. […] Panc1, Panc28 and L3.6pl cells are seeded in DMEM/F12 media with 5% FBS and treated the next day with either vehicle (DMSO) or with the indicated compounds' concentrations. Cells are counted at the indicated times using a Z1™ COULTER COUNTER® cell counter. Each experiment is carried out in triplicate and results expressed as means ±SD for each determination.

[2] = tested on: VEGF promoter constructs pVEGF1 and pVEGF2; experiment: VEGF promoter (pVEGF1/pVEGF2) luciferase transactivation in Panc-1 cells; conditions: Panc-1 cells; for transactivation of pVEGF2, concentration dependence: 20-80 μM
Experimental: Transfection of Panc-1 cells with pVEGF1 and pVEGF2 and treatment with 50 μM ampiroxicam and tolfenamic acid (FIGS. 2A, 2B) or diclofenac sodium (FIGS. 2C, 2D) with pVEGF1 or pVEGF2 constructs. Cells were transfected with pVEGF1 or pVEGF2 treated with DMSO, 50 μM ampiroxicam, tolfenamic acid, or diclofenac sodium, and luciferase activity determined. Transfection of L3.6pl cells with pVEGF1 (FIG. 2E) or pVEGF2 constructs (FIG. 2F). […] Panc-1 cells were transfected with pVEGF2, treated with 20, 40, 60 or 80 μM ampiroxicam or tolfenamic acid, and luciferase determined. Results presented herein are means ±SE for three separate determinations per treatment group, and significant (p<0.05) decrease in luciferase activity is indicated by an asterisk.
Cells are cultured in 6-well plates in 2 ml of DME/F12 medium supplemented with 5% fetal bovine serum. After 16-20 hr when cells are 50-60% confluent, reporter gene constructs are transfected using LIPOFECTAMINE™ reagent (Invitrogen, Carlsbad, Calif.). The effects of the selective non-steroidal anti-inflammatory drugs on transactivation are investigated in Panc1 and L3.6pl cells co-transfected with different VEGF constructs (500 ng). […] For proteasome inhibitor experiments, cells will be co-treated with 2 μM lactacystin, and for electrophoretic mobility shift assay (EMSA), nuclear extracts from Panc1 and L3.6pl cells are isolated as described, and aliquots will be stored at −80° C. until used (Abdelrahim et al, 2004; Abdelrahim et al, 2005).
Previous studies have shown COX-2 inhibitors or small interfering RNAs for Sp proteins decreased vascular endothelial growth factor expression in colon and pancreatic cells (Abdelrahim et al, 2005; Baker et al, 2002; Masferrer et al, 2000; Bouwman et al, 2002). The effects of DMSO, 50 μM tolfenamic acid and 50 μM ampiroxicam on vascular endothelial growth factor expression were initially investigated in Panc-1 cells transfected with the pVEGF1 and pVEGF2 constructs, which contain −2018 to +50 and −131 to +54 VEGF promoter inserts, respectively (FIGS. 2A and 2B).

[3] = tested on: Sp protein binding to GC-rich VEGF promoter oligonucleotide; experiment: Gel mobility shift of nuclear extracts from Panc-1 cells with VEGF32P; conditions: nuclear extracts of Panc-1 cells treated with 50 μM for 48 hr
Experimental: Vascular endothelial growth factor and VEGFR1 oligonucleotides are synthesized and annealed, and 5 pmol aliquots are 5′-end-labeled using T4 kinase and [y-^32P]ATP. After the reaction sample was incubated 20 min on ice, and antibodies against Sp1, Sp3, and Sp4 proteins are added and incubated another 20 min on ice. Protein-DNA complexes are resolved by 5% polyacrylamide gel electrophoresis as previously described (Abdelrahim et al, 2004; Abdelrahim et al, 2005, Abdelrahim et al, submitted 2005).
Panc1 or L3.6pl cells were treated with DMSO, 50 μM tolfenamic acid or 50 μM ampiroxicam for 48 hr. Nuclear extracts from these cells were isolated, incubated with VEGF^32P and analyzed in gel mobility shift assays.
The radiolabeled oligonucleotide contained a GC-rich region (−66 to −47) from the VEGF promoter that binds Sp proteins.

[4] = tested on: Sp1, Sp3, and Sp4 proteins; experiment: Western blot of Sp1, Sp3 and Sp4 protein expression in Panc-1 cells; conditions: for Sp1, Sp3, and Sp4 protein expression: Western blot, vs DMSO

Row | Structure (SMILES) | relative potency in Panc-1 growth inhibition ([1]; compared with ampiroxicam and naproxen) | growth of Panc-1 pancreatic cancer cells [1] | luciferase activity, pVEGF1 and pVEGF2 constructs ([2]; 50 μM) | transactivation of pVEGF2, concentration dependence [2] | Sp3 and Sp1/Sp4 retarded bands with VEGF32P [3] | decrease in levels of Sp1, Sp3, and Sp4 proteins ([4]; 50 μM, 48 hr) | order of potency for decreased expression of Sp1, Sp3, and Sp4 proteins ([4]; 50 μM, 48 hr) | Sp1, Sp3, and Sp4 protein expression ([4]; 50 μM, 48 hr) | luciferase activity, pVEGF2 ([2]; 50 μM, in presence or absence of lactacystin) | Sp protein degradation ([4]; 150 μM, 48 hr (concentration of comparable growth inhibition))
1 | Cc1c(Cl)cccc1Nc1ccccc1C(=O)O [tolfenamic acid] | exhibited higher potencies | decreased growth of Panc-1 pancreatic cancer cells | significantly decreased activities | concentration-dependent decrease in transactivation | retarded bands were decreased | greater than 80% | tolfenamic acid>diclofenac˜diflunisal | decreased expression of Sp1, Sp3, and Sp4 proteins; also recorded: induced protein degradation | – | –
2 | CCOC(=O)OC(C)OC1=C(C(=O)Nc2ccccn2)N(C)S(=O)(=O)c2ccccc21 (stereo not drawn) [ampiroxicam] | – | decreased growth of Panc-1 pancreatic cancer cells | but not ampiroxicam, significantly decreased activities | showed no effect | retarded bands of similar intensity | – | – | had no effect; also recorded: did not affect Sp protein levels | did not affect luciferase activity | only tolfenamic acid induced protein degradation
